Patent publication US20250213558A1, “T-TYPE CALCIUM CHANNEL MODULATORS COMPRISING A PIPERAZINE OR 1,4-DIAZEPANE CORE AND METHODS OF USE THEREOF” (Praxis Precision Medicines, Inc., priority 2022, published 2025)
Like-named read-outs stand apart in the source and are kept apart here.

Biological target: T1, Human Cav3.1 calcium channel (Homo sapiens, UniProt O43497)
T1 construct: expressed in transfected cells; host or cells: HEK-293 natClytin/TASK1+Cav3.1 cell line
Assay: Human Cav3.1 calcium channel patch clamp assay (SyncroPatch 384PE; single point and IC50, voltage dependent block)
Assay type: cell-based
Conditions: for % Inhibition (Single Point Data): patch clamp
Procedure: Certain compounds (as indicated) were tested for Human Cav3.1 calcium channel activity via a patch clamp assay as disclosed herein.
Pulse generation and data collection were performed with PatchController384 V1.3.0 and DataController384 V1.2.1 (Nanion Technologies). Offline analysis was performed using Excel and Graphpad Prism (V 8.4.2) with complete data files uploaded to Dotmatics. The access resistance and apparent membrane capacitance were estimated using built-in protocols. Current was recorded in whole cell configuration from a population of cells. The cells were lifted, triturated, and resuspended at 800,000 cells/ml. The cells were allowed to recover in the cell hotel prior to experimentation. Currents were recorded at room temperature. The external solution contained the following (in mM): NaCl 80, NMDG 60, KCl 4, MgCl2 1, CaCl2 6, glucose 5 and HEPES 10 (pH=7.4, Osmolarity˜300 mOsm). The extracellular solution was used as the wash, reference and compound delivery solution.
The compound plate was created at 2× concentrated in the extracellular solution. The compound was diluted to 1:2 when added to the recording well. The amount of DMSO in the extracellular solution was held constant at the level used for the highest tested concentration. For the voltage clamp experiments on Cav3.1, data were sampled at 10 KHz. After establishment of the seal and the passage in the whole cell configuration, the cells were held at −120 mV. Cav3.1 current was evoked using a 100 ms step to −20 mV (to measure resting state block), followed by a 1600 ms step to −65 mV and a second 100 ms step to −20 mV (to measure voltage dependent block). The voltage protocol was applied every 15 seconds in the absence and in the presence of the compounds under investigation. […] Current amplitude (pA) was measured in the peak 1 and 2. The average of last 3 sweeps of each liquid period (vehicle, compound under investigation, full block) was calculated. Nickel-sensitive current was used to calculate the % of inhibition in the presence of the compound under investigation.

[1] = Testing Conc 1.25, HEK-293 natClytin/TASK1+Cav3.1 cell line
[2] = voltage dependent block (VDB), HEK-293 natClytin/TASK1+Cav3.1 cell line, read-out: Cav3.1 IC50
[3] = Testing Conc 1, HEK-293 natClytin/TASK1+Cav3.1 cell line

T1 sequence (O43497 whole entry): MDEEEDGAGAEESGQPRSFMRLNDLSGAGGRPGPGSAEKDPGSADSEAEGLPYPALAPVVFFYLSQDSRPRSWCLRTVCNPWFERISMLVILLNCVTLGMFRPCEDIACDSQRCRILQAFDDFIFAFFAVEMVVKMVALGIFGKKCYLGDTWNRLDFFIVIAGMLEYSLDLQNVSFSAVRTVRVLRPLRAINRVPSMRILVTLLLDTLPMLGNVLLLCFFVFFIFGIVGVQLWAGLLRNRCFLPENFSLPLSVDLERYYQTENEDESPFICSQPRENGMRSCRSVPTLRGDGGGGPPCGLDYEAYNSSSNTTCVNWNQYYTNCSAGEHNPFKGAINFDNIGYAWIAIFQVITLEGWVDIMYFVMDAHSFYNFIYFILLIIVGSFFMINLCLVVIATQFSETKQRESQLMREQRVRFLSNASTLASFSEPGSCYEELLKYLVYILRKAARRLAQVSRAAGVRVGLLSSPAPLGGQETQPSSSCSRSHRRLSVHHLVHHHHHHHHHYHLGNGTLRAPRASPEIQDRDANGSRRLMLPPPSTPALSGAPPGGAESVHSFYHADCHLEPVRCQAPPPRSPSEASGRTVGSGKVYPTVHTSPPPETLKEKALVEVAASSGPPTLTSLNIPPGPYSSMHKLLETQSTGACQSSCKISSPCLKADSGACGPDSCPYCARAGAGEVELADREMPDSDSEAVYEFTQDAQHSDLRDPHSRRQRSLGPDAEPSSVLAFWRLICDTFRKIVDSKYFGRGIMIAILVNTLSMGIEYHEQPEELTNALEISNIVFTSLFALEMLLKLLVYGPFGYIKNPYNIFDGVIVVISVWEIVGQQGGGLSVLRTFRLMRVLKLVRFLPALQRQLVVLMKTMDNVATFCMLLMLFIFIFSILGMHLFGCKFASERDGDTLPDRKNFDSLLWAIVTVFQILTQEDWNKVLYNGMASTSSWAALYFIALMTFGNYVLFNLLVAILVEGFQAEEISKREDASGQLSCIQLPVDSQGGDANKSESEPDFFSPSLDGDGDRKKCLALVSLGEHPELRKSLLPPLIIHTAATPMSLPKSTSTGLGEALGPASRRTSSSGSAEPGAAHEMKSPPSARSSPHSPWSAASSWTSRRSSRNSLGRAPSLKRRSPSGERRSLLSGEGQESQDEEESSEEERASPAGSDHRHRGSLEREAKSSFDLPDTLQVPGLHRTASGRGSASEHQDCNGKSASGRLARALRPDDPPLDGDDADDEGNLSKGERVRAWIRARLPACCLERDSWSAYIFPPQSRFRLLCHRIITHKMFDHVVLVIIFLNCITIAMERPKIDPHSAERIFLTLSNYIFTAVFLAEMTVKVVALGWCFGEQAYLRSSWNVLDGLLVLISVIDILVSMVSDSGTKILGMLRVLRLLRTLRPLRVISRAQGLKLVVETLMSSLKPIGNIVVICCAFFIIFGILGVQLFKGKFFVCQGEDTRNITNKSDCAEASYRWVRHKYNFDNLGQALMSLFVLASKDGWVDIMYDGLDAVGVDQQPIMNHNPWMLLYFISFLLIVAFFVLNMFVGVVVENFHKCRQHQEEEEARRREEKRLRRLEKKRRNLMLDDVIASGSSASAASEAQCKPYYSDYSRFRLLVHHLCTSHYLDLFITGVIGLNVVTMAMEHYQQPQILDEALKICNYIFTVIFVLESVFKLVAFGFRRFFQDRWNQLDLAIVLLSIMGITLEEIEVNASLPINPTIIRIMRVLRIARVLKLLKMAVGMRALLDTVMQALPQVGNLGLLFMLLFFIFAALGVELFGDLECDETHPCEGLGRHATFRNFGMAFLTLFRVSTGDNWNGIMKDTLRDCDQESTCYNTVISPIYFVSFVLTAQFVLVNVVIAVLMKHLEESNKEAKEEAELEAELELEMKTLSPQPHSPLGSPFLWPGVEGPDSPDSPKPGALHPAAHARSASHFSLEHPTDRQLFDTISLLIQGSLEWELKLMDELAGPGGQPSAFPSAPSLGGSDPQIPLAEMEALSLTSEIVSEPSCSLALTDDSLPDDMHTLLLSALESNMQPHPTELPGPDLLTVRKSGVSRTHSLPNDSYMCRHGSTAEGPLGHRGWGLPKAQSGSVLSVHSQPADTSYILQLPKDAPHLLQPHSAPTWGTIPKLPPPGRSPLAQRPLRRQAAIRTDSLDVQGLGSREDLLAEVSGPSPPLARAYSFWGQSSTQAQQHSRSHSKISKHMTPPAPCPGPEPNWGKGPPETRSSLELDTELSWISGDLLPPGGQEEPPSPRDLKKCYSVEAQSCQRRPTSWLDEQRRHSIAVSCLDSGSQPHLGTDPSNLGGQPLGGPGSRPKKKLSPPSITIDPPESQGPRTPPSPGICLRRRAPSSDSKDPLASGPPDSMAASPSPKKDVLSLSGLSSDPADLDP

Row | Compound | % Inhibition (Single Point Data) [1] | IC50 [2] | % Inhibition (Single Point Data) [3] | IC50
1 | CC(C)Cc1cc(CNC(=O)CN2CCN(CC(=O)NC(C)(C)C)CC2)nn1-c1ccccc1 [Compound 1, 2-[4-[2-(tert-butylamino)-2-oxo-ethyl]piperazin-1-yl]-N-[(5-isobutyl-1-phenyl-pyrazol-3-yl)methyl]acetamide] | 27.978% | 2240 nM |  | 
2 | Cc1cc(CNC(=O)CN2CCN(CC(=O)NC(C)(C)C)CC2)nn1-c1ccccc1 [Compound 2] |  |  | 40.057% | 
3 | CC(C)(C)NC(=O)CN1C2CCC1CN(CC(=O)Nc1cc(F)cc(Cl)c1)C2 [Compound 3] | 94.689% | 273 nM |  | 
4 | Cn1nc(C2CC2)cc1NC(=O)CN1CC2CCC(C1)N2CC(=O)NC(C)(C)C [Compound 4] | 15.896% |  |  | 
5 | CC(C)(C)NC(=O)CN1C2CCC1CN(CC(=O)NCc1cc3ccccc3o1)C2 [Compound 5] | 22.469% |  |  | 
6 | Cn1nc(C(C)(C)C)cc1NC(=O)CN1CC2CCC(C1)N2CC(=O)NC(C)(C)C [Compound 6] | 10.343% |  |  | 
7 | CC(C)(C)NC(=O)CN1C2CCC1CN(CC(=O)NC13CC4CC(CC(C4)C1)C3)C2 [Compound 7] | 64.635% | 904 nM |  | 
8 | CC(C)(C)NC(=O)CN1CC2CCC1CN2CC(=O)NC12CC3CC(CC(C3)C1)C2 (stereo not drawn) [Compound 8] | 76.573% | 609 nM |  | 
9 | CC(C)(C)NC(=O)CN1C2CC1CN(CC(=O)Nc1cc(F)cc(Cl)c1)C2 [Compound 10] | 83.732% | 143 nM |  | 
10 | CC(C)(C)NC(=O)CN1C2CC1CN(CC(=O)Nc1cccc(Cl)c1)C2 [Compound 11] | 81.305% |  |  | 
11 | CC(C)(C)NC(=O)CN1C2CC1CN(CC(=O)Nc1cccc(OC(F)F)c1)C2 [Compound 12] | 81.341% |  |  | 
12 | CC(C)(C)NC(=O)CN1CC2CC1CN2CC(=O)Nc1cccc(C(F)F)c1 (stereo not drawn) [Compound 13] | 64.618% | 490 nM |  | 
13 | CC(C)(C)NC(=O)CN1C2CC1CN(CC(=O)Nc1cc(Cl)ccc1F)C2 [Compound 14] | 39.34% | 1710 nM |  | 
14 | CC(C)(C)NC(=O)CN1C2CC1CN(CC(=O)Nc1cccc(C(F)F)c1)C2 [Compound 15] | 73.866% | 308 nM |  | 
15 | O=C(CN1CC2CC(C1)N2CCNC(=O)C1(C(F)(F)F)CC1)Nc1ccc(F)c(Cl)c1 [Compound 16] | 94.311% |  |  | 
16 | O=C(CN1CC2CC(C1)N2CCNC(=O)C1(C(F)(F)F)CCC1)Nc1ccc(F)c(Cl)c1 [Compound 17] | 99.317% |  |  | < 78.2 nM
17 | O=C(CN1CC2CC1CN2CCNC(=O)C1(C(F)(F)F)CC1)Nc1ccc(F)c(Cl)c1 (stereo not drawn) [Compound 18] | 83.021% | 337 nM |  | 
18 | O=C(CN1CC2CC1CN2CCNC(=O)C1(C(F)(F)F)CCC1)Nc1ccc(F)c(Cl)c1 (stereo not drawn) [Compound 19] | 84.472% | 251 nM |  | 
19 | O=C(CN1C[C@H]2C[C@@H]1CN2CC(=O)NC1(C(F)(F)F)CC1)Nc1cc(F)cc(Cl)c1 [Compound 20] | 56.816% | 1020 nM |  | 
20 | CC(C)(C)NC(=O)CN1C[C@H]2C[C@@H]1CN2CC(=O)Nc1cc(F)cc(OC(F)F)c1 [Compound 21] | 73.828% |  |  | 
21 | CC(C)(C)NC(=O)CN1C[C@@H]2C[C@H]1CN2CC(=O)Nc1cc(F)cc(OC(F)F)c1 [Compound 22] | 97.77% | < 78.2 nM |  | 
22 | CC(C)(C)NC(=O)CN1C[C@@H]2C[C@H]1CN2CC(=O)Nc1ccc(F)c(Cl)c1 [Compound 23] | 91.472% |  |  | 
23 | CC(C)(NC(=O)CN1C[C@@H]2C[C@H]1CN2CC(=O)Nc1ccc(F)c(Cl)c1)C(F)(F)F [Compound 24] | 92.08% | 185 nM |  | 
24 | O=C(CN1C[C@@H]2C[C@H]1CN2CC(=O)NC1(C(F)(F)F)CC1)Nc1ccc(F)c(Cl)c1 [Compound 25] | 66.125% | 457 nM |  | 
25 | CC(C)(C)NC(=O)CN1C[C@H]2C[C@@H]1CN2CC(=O)Nc1ccc(F)c(Cl)c1 [Compound 26] | 57.68% | 827 nM |  | 
26 | CC(C)(NC(=O)CN1C[C@H]2C[C@@H]1CN2CC(=O)Nc1ccc(F)c(Cl)c1)C(F)(F)F [Compound 27] | 69.274% | 457 nM |  | 
27 | O=C(CN1C[C@H]2C[C@@H]1CN2CC(=O)NC1(C(F)(F)F)CC1)Nc1ccc(F)c(Cl)c1 [Compound 28] | 39.491% | 1570 nM |  | 

Row | Compound | % Inhibition (Single Point Data) [1] | IC50 [2] | % Inhibition (Single Point Data) [3] | IC50
28 | CC(C(=O)Nc1ccc(F)c(Cl)c1)N1CC2CC(C1)N2CC(=O)NC(C)(C)C (stereo not drawn) [Compound 29] | 90.315% | 342 nM |  | 
29 | CC(C(=O)Nc1ccc(F)c(Cl)c1)N1CC2CC(C1)N2CC(=O)NC1(C(F)(F)F)CC1 (stereo not drawn) [Compound 30] | 63.42% | 705 nM |  | 
30 | CC(C)(C)NC(=O)CN1CCN(Cc2cnc(-c3cc(F)cc(Cl)c3)[nH]2)CC1 [Compound 31, N-tert-butyl-2-[4-[[2-(3-chloro-5-fluoro-phenyl)-1H-imidazol-5-yl]methyl]piperazin-1-yl]acetamide] |  | 409 nM | 75.738% | 
31 | CC(C)(C)NC(=O)CN1CCCN(CC(=O)NC23CC4CC(CC(C4)C2)C3)CC1 [Compound 32] |  |  | 56.921% | 
32 | CC(C)(C)NC(=O)CN1CCN(CC(=O)NC23CC4CC(CC(C4)C2)C3)C(=O)C1 [Compound 33] |  |  | 54.403% | 
33 | CC(C)(C)NC(=O)CN1CCCN(CC(=O)Nc2cc(F)cc(Cl)c2)CC1 [Compound 34] |  |  | 51.943% | 
34 | CC(C)(C)NC(=O)CN1CCN(CC(=O)Nc2cc(F)cc(Cl)c2)C(=O)C1 [Compound 35] |  |  | 42.822% | 
35 | CC(C)(C)NC(=O)CN1CCCN(CC(=O)Nc2cc(F)cc(Cl)c2)C(=O)C1 [Compound 36] |  |  | 45.763% | 
36 | CC(C)(C)NC(=O)CN1CCC(=O)N(CC(=O)Nc2cc(F)cc(Cl)c2)CC1 [Compound 37] |  |  | 25.144% | 
37 | O=C(CN1CCN(CCC2CCOCC2)CC1=O)Nc1cc(F)cc(Cl)c1 [Compound 38] |  |  | 30.86% | 
38 | Cc1cc(NC(=O)CN2CCN(CC(=O)NC(C)(C)C)CC2)n(C)n1 [Compound 39] |  |  | 35.477% | 
39 | Cn1nc(NC(=O)CN2CCN(CC(=O)NC(C)(C)C)CC2)c2ccccc21 [Compound 40] |  |  | 17.386% | 
40 | CC(C)(C)NC(=O)CN1CCN(CC(=O)Nc2noc3ccccc23)CC1 [Compound 41] |  | 316 nM | 38.937% | 
41 | COCC1CN(CC(=O)NC(C)(C)C)CCN1CC(=O)Nc1cc(F)cc(Cl)c1 (stereo not drawn) [Compound 42] |  | 627 nM | 62.5% | 
42 | CC(C)(C)NC(=O)CN1CCN(Cc2cnc(-c3ccccc3)[nH]2)CC1 [Compound 43] |  |  | 29.301% | 
43 | CC(C)(C)NC(=O)CN1CCN(CC(=O)Nc2cc(F)cc(Cl)c2)C2(COC2)C1 [Compound 44] | 50% | 1210 nM |  | 
44 | CC(C)(C)NC(=O)CN1CC[C@H](CNc2nccc3ccc(Cl)cc23)CC1=O [Compound 45] | 58.802% |  |  | 
45 | CC(C)(C)NC(=O)CN1CC[C@@H](CNc2nccc3ccc(Cl)cc23)CC1=O [Compound 46] |  | 600 nM |  | 
46 | CC(C)(NC(=O)CN1CC2CC1CN2CC(=O)Nc1cc(F)cc(Cl)c1)C(F)(F)F (stereo not drawn) [Compound 47] | 89.371% | 33.7 nM |  | 
47 | CC(C)(C)NC(=O)CN1CC2CC1CN2CC(=O)Nc1cc(Cl)ccc1F (stereo not drawn) [Compound 48] | 28.07% | 1340 nM |  | 
48 | O=C(CN1CC2CC(C1)N2CC(F)C1CCCCC1)Nc1cc(F)cc(Cl)c1 (stereo not drawn) [Compound 49] | 44.843% | 1160 nM |  | 
49 | CC(C)(C)S(=O)(=O)CCN1C2CC1CN(CC(=O)Nc1cc(F)cc(Cl)c1)C2 [Compound 50] | 57.816% |  |  | 
50 | N#CC1(CN2C3CC2CN(CC(=O)Nc2cc(F)cc(Cl)c2)C3)CCCCC1 [Compound 51] | 29.781% | 1440 nM |  | 
51 | N#CC1(CN2C3CC2CN(CC(=O)Nc2cc(F)cc(Cl)c2)C3)CCC(F)(F)CC1 [Compound 52] | 51.764% | 853 nM |  | 
52 | CC(C)(NC(=O)CN1CCN(CC(=O)Nc2cc(F)cc(OC(F)F)c2)CC1)C(F)(F)F [Compound 53] | 57.147% | 1010 nM |  | 
53 | O=C(CN1CCN(CC(=O)NC2(C(F)(F)F)CC2)CC1)Nc1cc(F)cc(OC(F)F)c1 [Compound 54] | 39.211% | 1560 nM |  | 
